Test system: TNFα released by PBMCs stimulated by LPS
Assay: Inhibition of the release of TNFα in peripheral blood mononuclear cells (PBMCs) stimulated by lipopolysaccharide (LPS), ELISA
Format: cell-based, human
Settings: LPS 0.1 μg/mL, 20 hours incubation; for Inhibition Degree: compound concentration 3.0 μM; for EC50: concentration giving 50% TNFα inhibition
Protocol: Pharmacological Research: Effects on the releasing of TNFα in peripheral blood mononuclear cells (PBMCs) stimulated by lipopolysaccharide (LPS).
Cytokine TNFα released by PBMCs in the peripheral blood stimulated by lipid polysaccharide (LPS) in vitro was studied.
PBMCs were collected from blood of at least three volunteers pretreated with heparin by a gradient separation method, and washed three times with a 1640 culture medium (10% calf serum, 2 mM L-glutamine, […] mercaptoethanol, 50 μg/mL streptomycin, and 50 U/mL penicillin). The obtained PBMCs were then placed into a 24-well cell culture plate and the concentration was adjusted to 1×10^6 cells/mL with 1640 culture medium. The compounds to be tested were dissolved in dimethylsulfoxide to obtain a solution having a required concentration. The solution was added to the above-mentioned cell culture medium and cultured in an incubator (5% CO2, 90% humidity) for 1 hour. Then, LPS (Sigma) was added until the concentration reached 0.1 μg/mL (except for the control).
After 20 hours incubation, the content of TNFα in the supernatant of the PBMC culture medium was assayed by ELISA kit (America Genzyme Co) using standard method. The TNFα inhibition rate was calculated by measured value of the control well (not treated) and the measured value of the test wells (treated with the test compound). The concentration of compounds giving a 50% TNFα inhibition (IC50 value) was calculated using nonlinear regression analysis. Each concentration was determined twice and an average value was practicable.

SMILES: Nc1scc2c1CN(C1CCC(=O)NC1=O)C2=O (stereo not shown) [Example 18, 3-(1-amino-4-oxo-4H-thiophene[3,4-c]pyrrole-5(6H)-yl)piperidine-2,6-dione]
- Inhibition Degree: 94%
- EC50: 60 nM

SMILES: O=C1CCC(N2Cc3c(csc3[N+](=O)[O-])C2=O)C(=O)N1 (stereo not shown) [Example 17, 3-(1-nitro-4-oxo-4H-thiophene[3,4-c]pyrrole-5(6H)-yl)piperidine-2,6-dione]
- Inhibition Degree: 19%

SMILES: O=C1CCC(N2C(=O)c3ccccc3C2=O)C(=O)N1 (stereo not shown) [Thalidomide, reference compound]
- inhibition at 100 µM (Homo sapiens, PBMC, compound concentration 100 μM, read-out: Inhibition Degree): 22%
- EC50 (Homo sapiens, PBMC): 183000 nM

SMILES: CN1C(=O)CCC(N2Cc3cscc3C2=O)C1=O (stereo not shown) [Example 10, 1-methyl-3-(4-oxo-4H-thiophene[3,4-c]pyrrol-5(6H)-yl)piperidine-2,6-dione]
- Inhibition Degree: 28%

SMILES: O=C1CCC(N2Cc3cscc3C2=O)C(=O)N1 (stereo not shown) [Example 9, 3-(4-oxo-4H-thiophene[3,4-c]pyrrol-5(6H)-yl)piperidine-2,6-dione]
- Inhibition Degree: 32%

SMILES: CC1(N2Cc3c(csc3N)C2=O)CCC(=O)NC1=O (stereo not shown) [Example 20, 3-methyl-3-(1-amino-4-oxo-4H-thiophene[3,4-c]pyrrole-5(6H)-yl)piperidine-2,6-dione]
- Inhibition Degree: 76%
- EC50: 180 nM

SMILES: CCCN1C(=O)CCC(N2Cc3cscc3C2=O)C1=O (stereo not shown) [Example 11, 3-(4-oxo-4H-thiophene[3,4-c]pyrrol-5(6H)-yl)-1-propylpiperidine-2,6-dione]
- Inhibition Degree: 22%

SMILES: CC1(N2Cc3cscc3C2=O)CCC(=O)NC1=O (stereo not shown) [Example 16, 3-methyl-3-(4-oxo-4H-thiophene[3,4-c]pyrrole-5(6H)-yl)piperidine-2,6-dione]
- Inhibition Degree: 38%

SMILES: O=C1CCC(N2Cc3ccsc3C2=O)C(=O)N1 (stereo not shown) [Example 33, 3-(6-oxo-4H-thiophene[3,2-c]pyrrole-5(6H)-yl)piperidine-2,6-dione]
- Inhibition Degree: 47%

SMILES: O=C1CCC(N2C(=O)c3cscc3C2=O)CN1 (stereo not shown) [Example 34, 5-(6-oxo-piperidine-3-yl)-5H-thiophene[3,4-c]pyrrole-4,6-dione]
- Inhibition Degree: 18%

From patent US20100152240A1, “PYRROLINE-2-ONE DERIVATIVES AGAINST CELL RELEASING TUMOR NECROSIS FACTOR, PREPARATION METHODS AND USES THEREOF” (priority 2006, published 2010)
